# Data published in PubChem BioAssay (NCI).
#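 The compound was tested at five concentrations on cells cultured in 96-well plates, with a 48-hour exposure period. GI50 is the concentration that inhibits growth by half. TGI marks complete inhibition of growth.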
# Experiments:
# Assay in all cases: NCI-60 cell line screen, 48 h
# SNB-19 CNS = test system: SNB-19 CNS
# UACC-257 melanoma = test system: UACC-257 melanoma
# IGROV1 ovarian = test system: IGROV1 ovarian
# 786-0 renal = test system: 786-0 renal
# MALME-3M melanoma = test system: MALME-3M melanoma
# OVCAR-5 ovarian = test system: OVCAR-5 ovarian
# SK-MEL-2 melanoma = test system: SK-MEL-2 melanoma
# SN12C renal = test system: SN12C renal
# NCI/ADR-RES ovarian = test system: NCI/ADR-RES ovarian
# DU-145 prostate = test system: DU-145 prostate
Structure (SMILES),TGI (SNB-19 CNS) [µM],TGI (UACC-257 melanoma) [µM],TGI (IGROV1 ovarian) [µM],TGI (786-0 renal) [µM],TGI (MALME-3M melanoma) [µM],TGI (OVCAR-5 ovarian) [µM],TGI (SK-MEL-2 melanoma) [µM],TGI (SN12C renal) [µM],TGI (NCI/ADR-RES ovarian) [µM],TGI (DU-145 prostate) [µM],GI50 (SNB-19 CNS) [µM],GI50 (UACC-257 melanoma) [µM],GI50 (IGROV1 ovarian) [µM],GI50 (786-0 renal) [µM],GI50 (MALME-3M melanoma) [µM],GI50 (OVCAR-5 ovarian) [µM],GI50 (SK-MEL-2 melanoma) [µM],GI50 (SN12C renal) [µM],GI50 (NCI/ADR-RES ovarian) [µM],GI50 (DU-145 prostate) [µM]
Cc1ccccc1NC(=O)c1cc(-c2ccc([N+](=O)[O-])cc2)nc(=S)[nH]1,> 100,> 100,> 100,> 100,> 100,> 100,> 100,> 100,–,–,–,–,–,–,–,–,–,–,–,–
Cc1[nH]nc(C(F)(F)F)c1N=NN(C)C,28.8,28.2,–,3.09,38.3,–,35.5,30.1,23,24.2,–,–,–,–,–,–,–,–,–,–
CCC[CH2][Sn]([Cl])([Cl])[CH2]CCC,2.17,2.26,1.62,2.04,1.44,2.89,1.54,2.25,–,–,0.948,0.854,1.04,0.714,0.371,1.51,0.495,0.966,–,–
Cc1nc(N)nc2c1CCC(O)S2 (centres undefined),41.1,47.1,17.9,24.5,39.4,74.3,–,56.2,> 100,12.2,6.43,12.9,4.67,10.7,11.3,20.7,–,7.81,> 100,3.5
O=C(O)c1ccc(NCn2nc(-c3ccccc3O)oc2=S)cc1,> 100,> 100,> 100,> 100,–,> 100,> 100,> 100,> 100,–,> 100,> 100,> 100,39.7,–,> 100,> 100,50.5,62.7,–
CC1=Nc2c(ccc3c2C(=O)c2ccccc2C3=O)NC(c2cccc3c2CCC3)C1 (centres undefined),> 100,> 100,> 100,> 100,> 100,> 100,> 100,> 100,–,–,–,–,–,–,–,–,–,–,–,–
CC1=C[C@H]2c3c([nH]c4ccccc34)C(c3c[nH]c4ccccc34)[C@H]2CC1 (some centres undefined),–,27.9,22.4,11.2,35.1,–,–,12.9,–,–,–,–,–,–,–,–,–,–,–,–
O=C(Cc1nc2ccccc2c(=O)n1-c1ccccc1Cl)c1ccncc1,> 100,> 100,> 100,> 100,> 100,> 100,> 100,> 100,–,–,–,–,–,–,–,–,–,–,–,–
COC12CCC(=O)C=C1c1ccccc1N2C(C)=O (centres undefined),> 100,> 100,> 100,> 100,–,–,> 100,> 100,–,–,–,–,–,–,–,–,–,–,–,–
Cc1nn[n-]n1.N.N.N.N.N.[Cl-].[Co+3],> 100,> 100,> 100,> 100,> 100,> 100,> 100,> 100,–,–,> 100,> 100,> 100,> 100,> 100,> 100,> 100,> 100,–,–
CC1=C(C(=O)CC(=O)C(=O)Nc2cc(C)ccc2C)Sc2ccccc2N1,> 100,> 100,> 100,> 100,> 100,> 100,> 100,> 100,–,–,–,–,–,–,–,–,–,–,–,–
OCc1ccc(N2CCc3cccc(F)c3C2)cc1Cl,> 100,–,0.101,44.7,63.6,0.151,30.5,> 70.2,37.1,30.3,30.9,–,0.025,16.7,24.1,0.0253,–,14.6,7.68,4.5
CCCNC(=O)C1C(=O)C(=O)N(CCC)C1=O (centres undefined),> 100,> 100,> 100,> 100,> 100,> 100,> 100,> 100,–,–,–,–,–,–,–,–,–,–,–,–
CC1/C=C/[C@@]2(C)CCC(C(C)(C)O)C2C(O)C[C@](C)(O)/C=C/C1 (some centres undefined),> 100,> 100,> 100,> 100,> 100,> 100,> 100,> 100,–,–,–,–,–,–,–,–,–,–,–,–
CC(=O)N/N=C1\CC(C)(C)C2CCC1C2 (centres undefined),> 100,> 100,> 100,> 100,> 100,> 100,> 100,> 100,–,–,–,–,–,–,–,–,–,–,–,–
CCC(=O)c1c(NOC2OCC(OC(C)=O)C(OC(C)=O)C2OC(C)=O)nc(OC)n(C)c1=O (centres undefined),> 100,> 100,> 100,> 100,> 100,> 100,–,> 100,–,–,–,–,–,–,–,–,–,–,–,–
N#Cc1ccccc1C(Cl)(Cl)c1cnccn1,> 100,> 100,> 100,32.3,–,> 100,> 100,> 100,–,–,–,–,–,–,–,–,–,–,–,–
C[C@@H]1C[C@H](C)CN(S(=O)(=O)c2ccc3c(NO)c4ccc(S(=O)(=O)N5C[C@H](C)C[C@H](C)C5)cc4c(N=O)c3c2)C1,0.353,–,0.461,0.309,0.293,0.4,0.403,0.399,> 1,0.268,0.164,–,0.21,0.169,0.14,0.173,0.194,0.17,0.302,0.115
COC/C=C\COC,> 100,> 100,> 100,> 100,> 100,> 100,> 100,> 100,–,–,–,–,–,–,–,–,–,–,–,–
COc1cc2c(c(OC)c1OC)-c1ncc3c(OC)c(OC)c(OC)cc3c1C2,> 100,–,93,> 100,–,77.9,74.4,64.8,38,> 100,40.1,–,34.1,36.5,–,17.4,30.8,20.3,15.6,29.6
